In patent US20080096872A1, “Composition for Treatment of Pain Specification” (priority 2004, published 2008):
Entries after “also recorded” stand apart in the source; their conditions may differ.

Tests used:
Assay type in all cases: in vivo, human
[1] = tested on: patients on chronic methadone therapy for pain; assay: VAS pain and clinical comments in pain patients in clinical trial, with and without NAC
Description: (§1) 6 patients who have been on chronic methadone therapy for pain treatment and who are also taking NAC (600 mg/day) were studied. Patients were taking a range of methadone doses (30-160 mg/day).
(§2) This is a descriptive case study of 6 patients. A blood sample was obtained and used to measure serum methadone levels was obtained on methadone/NAC therapy. NAC was supplied by the investigator from assayed commercially available supply and pill counts were done to assure patient compliance. The patients were on the same methadone dose for over seven days; this ensures steady state levels of methadone had been achieved. The patients were then be asked to stop taking NAC for 7 days and were asked to return to the clinic for a second blood draw that measured serum methadone levels. Blood was collected in the offices of BAA. Three additional patients were studied, after the results from sera of the initial patients were assayed; these patients had baseline pain and fatigue assessments with the Piper Survey and were subsequently treated with NAC, serum determinations were sent, but have not as yet been completed. Thus patients on methadone were studied with NAC withdrawal (First Group) and NAC added to treatment (second group). The medical chart was reviewed for current medications, including over the counter medications, supplements, and herbal preparations; health conditions and available laboratory evaluations of electrolytes. The patient's age and gender was recorded.
(§3) BAA offices: A 5 ml blood sample will be obtained on methadone/NAC. Blood was drawn prior to a normally timed dose of methadone. The patient was instructed to discontinue taking NAC and returned in 7 days, at the same time, for a blood draw. This was also drawn prior to a normally timed dose of methadone. Patients completed a Piper survey for fatigue and distress on each occasion prior to the blood draw. The Piper score reflects a valid measure of fatigue. Higher numbers for the score are indicative of greater fatigue. Within the Piper survey a pain measure is also recorded. Both pain and fatigue scores were measured at each of the clinical visits one week apart. Trained study personnel completed chart review. Analysis of serum concentrations of methadone was completed at the Bioanalytical Core Lab at the Arizona Health Science Center (Sarver Heart Center, University of Arizona, Tucson).

[2] = tested on: patients on chronic methadone therapy for pain; assay: Piper survey for fatigue in chronic pain patients on methadone, with and without NAC
Description: as §1, §2, §3

[3] = tested on: patients with pain / restless legs syndrome; assay: Case histories: NAC added to oral ketamine (pain diary, patient reports); details: single patients; Case 1: NAC 25 mg, within 24 hours; Case 2: ketamine 150 mg/day
Description: The patient maintained a diary noting their level of pain with 1 being the lowest and 10 the highest. […] The patient was then administered 25 mg of NAC to be taken in combination with oral ketamine.

[4] = tested on: Restless Legs Syndrome (RLS) subjects; assay: Clinical use: relief of Restless Legs Syndrome symptoms; details: clinical observation
Description: The blood levels of these patients measured below detection thresholds (20 ng/ml) and well below the blood levels recorded for pain relief (300 ng/ml). The NAC dose used in the present invention was far less than the 500 mg TID dose used as a supplement in treatment of diseases of inflammation.

[5] = cases summarized and a few additional cases
[6] = on methadone without NAC (M001-M003 NAC stopped 7 days; M004-M006 baseline before NAC)

Structure (SMILES): CC(=O)N[C@@H](CS)C(=O)O [NAC, N-acetyl-cysteine]
- medication for pain when NAC is added to methadone [1, 5]: reduction in medication for pain
- opioid reduction ([1]; patient M004, after NAC added to methadone): subsequently; 30% opiod
- Comments: change on stopping NAC ([1]; patients M001-M003 on methadone, NAC stopped 7 days): Inc. irritabil; also recorded: Inc.pain/w
- Comments: patient report / clinical course after NAC added ([1]; patients M004-M006 on methadone, NAC added): Stopped all oxycondone; also recorded: “much less fatigue since starting; also recorded: “I do feel better taking NAC”
- fatigue when NAC is added to methadone [2, 5]: Improvement in fatigue
- Fatigue (yes/no) ([2]; on methadone with NAC, patients M001-M006): No
- Fatigue (yes/no) [2, 6]: Yes and No

Structure (SMILES): CCC(=O)C(CC(C)N(C)C)(c1ccccc1)c1ccccc1 (stereo not shown) [Mtd, methadone]
- Fatigue (yes/no) [2, 6]: Yes

Structure (SMILES): CNC1(c2ccccc2Cl)CCCCC1=O (stereo not shown) [ketamine]
- pain relief (patient report) [3]: noted pain relief

Structure (SMILES): COc1ccc2c(c1)[C@]13CCCC[C@@H]1[C@H](C2)N(C)CC3 [dextromethorphan]
- symptoms of Restless Legs Syndrome (RLS) [4]: treats restless legs syndrome
